Source: patent US20040138145A1, “Application of intestinal biliary acid reuptake inhibitors for the prevention and treatment of alzheimer's disease” (Aventis Pharma S.A., priority 2002, published 2004)

How the values were obtained:
[1] = test system: Aβ peptide; assay: Cerebral Aβ peptide levels (soluble and total brain fractions) in Tg53 transgenic mice, immunoelectrochemoluminescence assay; format: in vivo, mouse; conditions: for levels of total Aβ / levels of total Aβ reduced compared with control group: Test 3; for levels of total Aβ: control 108.1±8.5
[2] = test system: plasma cholesterol; assay: Plasma cholesterol level in Tg53 transgenic mice after treatment in feed; format: in vivo, mouse
Procedure: The compound A in powdered form was mixed at the dose of 0.01% (weight/weight) with standard feed in powdered form.
Transgenic mice Tg53 (overexpressing the human APP transgene carrying the “Swedish” and “London” mutations, (2002 Wirths, et al. (2002). Brain Pathol. 12, 275-286), 8-10 week old females, were treated for 3 weeks. The mice were housed in an individual cage with drink being available ad libitum. Every day, 6 grams of powdered food (supplemented or otherwise with compound A) were distributed in each cage. Two groups of 11 to 12 animals (control regimen or regimen supplemented with compound A) were used. At the end of the treatment, a blood sample was collected and the plasma cholesterol level was determined using an automated device for biological analysis.

## CCCC[C@]1(CC)CS(=O)(=O)c2ccc(N(C)C)cc2[C@@H](c2cccc(NC(=O)CCCCNC[C@H](O)[C@@H](O)[C@H](O)[C@H](O)CO)c2)[C@H]1O [compound A]
[1]; Test 1, Tg53 females 8-10 weeks old, 0.01% (w/w) in feed, 3 weeks, p=0.0103
  decrease in the cerebral level of soluble Aβ peptide compared to control regimen group: 18%
[1]; Test 2, female transgenic mice 15.5 weeks old at end of treatment, 0.01% in feed, n=8, control 364.2±40.9
  cerebral levels of total peptide Aβ: 196.3±17.8 ng/g of tissue
[1]; Test 2, female transgenic mice 15.5 weeks old at end of treatment, 0.01% in feed, p=0.0001
  reduction in the cerebral level of soluble Aβ peptide compared with control regime group: 40%
[1]; Test 2, female transgenic mice 15.5 weeks old at end of treatment, 0.01% in feed, p=0.0017
  cerebral levels of total peptide Aβ reduced compared with control regime group: 46%
[1]; 0.0001% in feed, n=8
  levels of total Aβ: 85.4±4.1 ng/g of tissue
[1]; 0.0001% in feed, p=0.04
  levels of total Aβ reduced compared with control group: 21%
[1]; 0.001% in feed, n=10
  levels of total Aβ: 86.5±5.9 ng/g of tissue
[1]; 0.001% in feed, p=0.050
  levels of total Aβ reduced compared with control group: 20%
[1]; 0.01% in feed, n=10
  levels of total Aβ: 90.5±6.9 ng/g of tissue
[1]; 0.01% in feed, p=0.123, ns
  levels of total Aβ reduced compared with control group: 16%
[2]; Test 1, Tg53 females 8-10 weeks old, 0.01% (w/w) in feed, 3 weeks, n=11, control 0.72±0.023
  plasma cholesterol level: 0.62 ± 0.030 g/L
[2]; Test 1, Tg53 females 8-10 weeks old, 0.01% (w/w) in feed, 3 weeks, p=0.0154
  plasma cholesterol level reduced compared to control regimen group: 14%
[2]; Test 2, female transgenic mice 15.5 weeks old at end of treatment, 0.01% in feed, n=8, control 0.85±0.03
  plasma cholesterol level: 0.70 ± 0.03 g/L
[2]; Test 2, female transgenic mice 15.5 weeks old at end of treatment, 0.01% in feed, p=0.0037
  plasma cholesterol level reduced compared with control regime group: 18%
